Patent publication US12240816B2, “Deuterated compounds and uses thereof” (Aldeyra Therapeutics, Inc., priority 2015, dated 2025)
Where two headings read alike, the source gives them in different places.

What was measured:
Test in all cases: biochemical
Format in all cases: biochemical
[1] = molecular target: enzyme and uptake assay panel targets (Table 36) (Homo sapiens, UniProt P56817); details: BACE-1 (h) (β-secretase); 1.0E−05M; flag INTER: Test compound interferes with the assay detection method
[2] = molecular target: enzyme and uptake assay panel targets (Table 36) (Homo sapiens, UniProt P08253); details: MMP-2 (h); 1.0E−05M
[3] = molecular target: enzyme and uptake assay panel targets (Table 36) (Homo sapiens, UniProt O76074); details: PDE5 (h) (non-selective); 1.0E−05M
[4] = molecular target: enzyme and uptake assay panel targets (Table 36) (Homo sapiens, UniProt P18054); details: 12-lipoxygenase (h); 1.0E−05M
[5] = molecular target: enzyme and uptake assay panel targets (Table 36) (Homo sapiens, UniProt P35354); details: COX2(h); 1.0E−05M
[6] = molecular target: T1, enzyme and uptake assay panel targets (Table 36) (Bos taurus, UniProt P80457); details: xanthine oxldase/superoxide 02 ^−scavenging, 1.0E−05M
T1 construct: other: xanthine oxidase/superoxide 02^−scavenging; nH; other: xanthine oxldase/superoxide 02 ^−scavenging; 1.0E−05M; ot; purified xanthine oxidase from bovine milk

[7] = molecular target: enzyme and uptake assay panel targets (Table 36) (Homo sapiens, UniProt Q14790); details: caspase-8 (h); 1.0E−05M
[8] = molecular target: enzyme and uptake assay panel targets (Table 36) (Homo sapiens, UniProt P17948); details: FLT-1 kinase (h) (VEGFR1); 1.0E−05M
[9] = molecular target: enzyme and uptake assay panel targets (Table 36) (Homo sapiens, UniProt P08473); details: Peptidase, Metalloproteinase, Neutral Endopeptidase; 1.0E−05M
[10] = molecular target: enzyme and uptake assay panel targets (Table 36) (Homo sapiens, UniProt P06213); details: IRK (h)(InsR); 1.0E−05M
[11] = molecular target: enzyme and uptake assay panel targets (Table 36) (Homo sapiens, UniProt Q08499); details: PDE4D2 (h); 1.0E−05M
[12] = molecular target: enzyme and uptake assay panel targets (Table 36) (Homo sapiens, UniProt P24941); details: CDK2 (h) (cycA); 1.0E−05M
[13] = molecular target: enzyme and uptake assay panel targets (Table 36) (Homo sapiens, UniProt Q9BYF1); details: ACE-2 (h); 1.0E−05M; flag INTER: Test compound interferes with the assay detection method
[14] = molecular target: enzyme and uptake assay panel targets (Table 36) (Homo sapiens, UniProt P00519); details: Abl kinase (h); 1.0E−05M
[15] = molecular target: enzyme and uptake assay panel targets (Table 36) (Homo sapiens, UniProt P07948); details: Lyn A kinase (h); 1.0E−05M
[16] = molecular target: enzyme and uptake assay panel targets (Table 36) (Homo sapiens, UniProt P14780); details: MMP-9 (h); 1.0E−05M; flag INTER: Test compound interferes with the assay detection method
[17] = molecular target: enzyme and uptake assay panel targets (Table 36) (Homo sapiens, UniProt P03956); details: MMP-1 (h); 1.0E−05M; flag INTER: Test compound interferes with the assay detection method
[18] = molecular target: enzyme and uptake assay panel targets (Table 36) (Homo sapiens, UniProt P12821); details: ACE (h); 1.0E−05M; flag INTER: Test compound interferes with the assay detection method
[19] = molecular target: enzyme and uptake assay panel targets (Table 36) (Homo sapiens, UniProt P09917); details: 5-lipoxygenase (h); 1.0E−05M
[20] = molecular target: enzyme and uptake assay panel targets (Table 36) (Homo sapiens, UniProt Q13370); details: PDE3B (h); 1.0E−05M
[21] = molecular target: enzyme and uptake assay panel targets (Table 36) (Homo sapiens, UniProt P23219); details: COX1(h); 1.0E−05M
[22] = molecular target: enzyme and uptake assay panel targets (Table 36) (Homo sapiens, UniProt O00408); details: PDE2A1 (h); 1.0E−05M
Sequence of enzyme and uptake assay panel targets (Table 36) (Homo sapiens, UniProt O00408) (O00408 whole entry): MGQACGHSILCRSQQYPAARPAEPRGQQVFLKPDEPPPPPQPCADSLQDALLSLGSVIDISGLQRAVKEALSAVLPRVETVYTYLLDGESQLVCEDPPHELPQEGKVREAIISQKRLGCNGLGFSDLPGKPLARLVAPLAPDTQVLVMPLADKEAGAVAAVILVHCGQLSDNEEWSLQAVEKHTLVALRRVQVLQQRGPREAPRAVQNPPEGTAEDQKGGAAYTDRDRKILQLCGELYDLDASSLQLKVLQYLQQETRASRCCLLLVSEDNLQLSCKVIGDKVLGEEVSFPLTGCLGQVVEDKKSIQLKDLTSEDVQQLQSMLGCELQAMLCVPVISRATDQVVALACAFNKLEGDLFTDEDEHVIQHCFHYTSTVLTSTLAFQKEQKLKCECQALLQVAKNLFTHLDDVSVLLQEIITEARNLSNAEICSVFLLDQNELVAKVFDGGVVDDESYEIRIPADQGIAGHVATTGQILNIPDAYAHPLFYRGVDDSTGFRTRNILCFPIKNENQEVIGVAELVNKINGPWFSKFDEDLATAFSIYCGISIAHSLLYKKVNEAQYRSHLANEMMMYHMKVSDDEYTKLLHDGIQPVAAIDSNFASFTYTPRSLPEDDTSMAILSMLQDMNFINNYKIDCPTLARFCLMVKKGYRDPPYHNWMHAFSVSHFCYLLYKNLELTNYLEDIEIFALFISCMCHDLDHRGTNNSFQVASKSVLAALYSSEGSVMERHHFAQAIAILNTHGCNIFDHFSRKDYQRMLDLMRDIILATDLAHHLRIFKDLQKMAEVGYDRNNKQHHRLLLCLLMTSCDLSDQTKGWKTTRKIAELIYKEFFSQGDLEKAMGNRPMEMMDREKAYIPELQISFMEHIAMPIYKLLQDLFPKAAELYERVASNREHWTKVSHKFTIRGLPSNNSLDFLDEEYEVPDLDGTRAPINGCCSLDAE

Sequence of enzyme and uptake assay panel targets (Table 36) (Homo sapiens, UniProt Q08499) (Q08499 whole entry): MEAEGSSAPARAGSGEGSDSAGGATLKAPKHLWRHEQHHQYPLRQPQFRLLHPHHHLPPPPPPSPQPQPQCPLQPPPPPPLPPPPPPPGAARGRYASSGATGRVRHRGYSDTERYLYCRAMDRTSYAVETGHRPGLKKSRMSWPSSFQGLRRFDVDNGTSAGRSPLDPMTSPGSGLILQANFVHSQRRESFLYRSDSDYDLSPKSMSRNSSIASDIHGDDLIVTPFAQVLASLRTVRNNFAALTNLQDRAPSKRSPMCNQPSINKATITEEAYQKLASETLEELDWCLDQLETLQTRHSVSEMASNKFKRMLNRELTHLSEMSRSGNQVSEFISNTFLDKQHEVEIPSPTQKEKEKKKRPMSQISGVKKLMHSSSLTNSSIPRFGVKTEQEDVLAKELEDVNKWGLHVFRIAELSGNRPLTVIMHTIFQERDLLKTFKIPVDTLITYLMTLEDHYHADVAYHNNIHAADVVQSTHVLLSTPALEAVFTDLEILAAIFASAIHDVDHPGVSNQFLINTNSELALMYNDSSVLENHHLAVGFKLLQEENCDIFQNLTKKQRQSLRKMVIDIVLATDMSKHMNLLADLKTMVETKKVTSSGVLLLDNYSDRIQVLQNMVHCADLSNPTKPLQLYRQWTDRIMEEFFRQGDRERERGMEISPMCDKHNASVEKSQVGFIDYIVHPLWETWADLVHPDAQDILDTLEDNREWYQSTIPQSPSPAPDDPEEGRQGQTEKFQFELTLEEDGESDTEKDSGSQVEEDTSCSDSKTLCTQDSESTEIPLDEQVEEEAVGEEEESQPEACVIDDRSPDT
Sequence of enzyme and uptake assay panel targets (Table 36) (Homo sapiens, UniProt P12821) (P12821 30-1306): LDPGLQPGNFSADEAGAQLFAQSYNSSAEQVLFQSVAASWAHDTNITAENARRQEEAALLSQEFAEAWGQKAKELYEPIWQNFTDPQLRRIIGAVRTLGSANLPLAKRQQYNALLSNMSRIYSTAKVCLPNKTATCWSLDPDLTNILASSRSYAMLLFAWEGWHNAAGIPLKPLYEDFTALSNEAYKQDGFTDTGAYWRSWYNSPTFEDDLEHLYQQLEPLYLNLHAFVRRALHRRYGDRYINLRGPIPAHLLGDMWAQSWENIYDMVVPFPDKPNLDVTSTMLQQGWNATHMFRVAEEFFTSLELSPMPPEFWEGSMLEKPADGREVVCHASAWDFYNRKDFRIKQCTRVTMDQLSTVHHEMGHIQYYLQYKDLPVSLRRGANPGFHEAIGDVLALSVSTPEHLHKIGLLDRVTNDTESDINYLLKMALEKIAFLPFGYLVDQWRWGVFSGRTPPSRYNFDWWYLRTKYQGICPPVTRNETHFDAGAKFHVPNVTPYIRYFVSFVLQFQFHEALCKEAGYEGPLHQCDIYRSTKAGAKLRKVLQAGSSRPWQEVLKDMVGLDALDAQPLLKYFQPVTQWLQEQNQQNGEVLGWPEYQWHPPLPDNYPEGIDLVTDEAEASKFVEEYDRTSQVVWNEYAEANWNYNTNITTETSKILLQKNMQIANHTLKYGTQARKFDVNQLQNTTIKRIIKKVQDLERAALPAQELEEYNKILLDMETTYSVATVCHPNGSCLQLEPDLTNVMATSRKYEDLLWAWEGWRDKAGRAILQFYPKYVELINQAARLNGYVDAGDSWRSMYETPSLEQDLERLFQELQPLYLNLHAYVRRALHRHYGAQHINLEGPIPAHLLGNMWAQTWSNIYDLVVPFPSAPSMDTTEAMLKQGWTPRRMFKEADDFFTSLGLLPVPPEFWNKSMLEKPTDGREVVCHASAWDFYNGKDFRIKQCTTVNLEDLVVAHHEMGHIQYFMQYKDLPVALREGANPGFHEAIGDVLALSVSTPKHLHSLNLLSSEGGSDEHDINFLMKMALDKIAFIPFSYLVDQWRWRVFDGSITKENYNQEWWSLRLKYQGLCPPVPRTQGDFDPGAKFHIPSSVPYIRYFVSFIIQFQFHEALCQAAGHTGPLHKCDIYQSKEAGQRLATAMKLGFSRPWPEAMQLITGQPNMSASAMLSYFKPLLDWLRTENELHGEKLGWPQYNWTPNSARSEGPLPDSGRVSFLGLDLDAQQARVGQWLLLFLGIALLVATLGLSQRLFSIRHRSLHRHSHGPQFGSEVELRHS
Sequence of enzyme and uptake assay panel targets (Table 36) (Homo sapiens, UniProt P06213) (P06213 28-1382): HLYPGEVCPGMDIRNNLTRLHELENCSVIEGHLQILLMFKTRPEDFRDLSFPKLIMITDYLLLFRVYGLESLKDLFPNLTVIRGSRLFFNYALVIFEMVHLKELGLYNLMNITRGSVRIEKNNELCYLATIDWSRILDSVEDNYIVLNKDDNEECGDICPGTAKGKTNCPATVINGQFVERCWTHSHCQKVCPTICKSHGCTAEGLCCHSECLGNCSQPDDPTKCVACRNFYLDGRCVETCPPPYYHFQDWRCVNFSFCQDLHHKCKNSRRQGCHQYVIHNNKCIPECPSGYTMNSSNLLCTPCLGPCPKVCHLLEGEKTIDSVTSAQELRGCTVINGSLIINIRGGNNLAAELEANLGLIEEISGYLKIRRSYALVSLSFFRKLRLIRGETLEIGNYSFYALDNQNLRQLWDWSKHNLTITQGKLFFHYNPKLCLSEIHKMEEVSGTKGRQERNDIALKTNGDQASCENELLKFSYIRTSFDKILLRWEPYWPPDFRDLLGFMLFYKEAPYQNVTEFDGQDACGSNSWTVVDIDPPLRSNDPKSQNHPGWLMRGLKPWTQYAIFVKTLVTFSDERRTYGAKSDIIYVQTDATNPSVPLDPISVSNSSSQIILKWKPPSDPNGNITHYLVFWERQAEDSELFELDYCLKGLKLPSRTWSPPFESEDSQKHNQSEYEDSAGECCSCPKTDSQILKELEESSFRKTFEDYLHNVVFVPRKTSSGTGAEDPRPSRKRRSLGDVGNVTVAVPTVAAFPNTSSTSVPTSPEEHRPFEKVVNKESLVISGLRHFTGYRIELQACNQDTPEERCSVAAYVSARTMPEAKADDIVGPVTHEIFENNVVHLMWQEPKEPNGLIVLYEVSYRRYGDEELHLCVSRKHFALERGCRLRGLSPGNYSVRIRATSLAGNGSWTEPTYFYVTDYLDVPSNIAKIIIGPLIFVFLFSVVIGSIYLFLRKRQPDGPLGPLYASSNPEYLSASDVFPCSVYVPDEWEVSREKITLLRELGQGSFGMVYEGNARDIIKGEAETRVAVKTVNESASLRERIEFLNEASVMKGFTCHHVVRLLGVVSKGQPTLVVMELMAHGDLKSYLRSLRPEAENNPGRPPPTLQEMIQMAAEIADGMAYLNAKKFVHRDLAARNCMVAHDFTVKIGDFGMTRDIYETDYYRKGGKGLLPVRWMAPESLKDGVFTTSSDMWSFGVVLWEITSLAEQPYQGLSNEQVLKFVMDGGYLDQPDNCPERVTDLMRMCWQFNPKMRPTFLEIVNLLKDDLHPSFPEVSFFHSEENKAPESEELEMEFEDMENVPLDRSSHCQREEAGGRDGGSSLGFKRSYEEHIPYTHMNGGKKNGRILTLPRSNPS
Sequence of enzyme and uptake assay panel targets (Table 36) (Homo sapiens, UniProt P14780) (P14780 94-707): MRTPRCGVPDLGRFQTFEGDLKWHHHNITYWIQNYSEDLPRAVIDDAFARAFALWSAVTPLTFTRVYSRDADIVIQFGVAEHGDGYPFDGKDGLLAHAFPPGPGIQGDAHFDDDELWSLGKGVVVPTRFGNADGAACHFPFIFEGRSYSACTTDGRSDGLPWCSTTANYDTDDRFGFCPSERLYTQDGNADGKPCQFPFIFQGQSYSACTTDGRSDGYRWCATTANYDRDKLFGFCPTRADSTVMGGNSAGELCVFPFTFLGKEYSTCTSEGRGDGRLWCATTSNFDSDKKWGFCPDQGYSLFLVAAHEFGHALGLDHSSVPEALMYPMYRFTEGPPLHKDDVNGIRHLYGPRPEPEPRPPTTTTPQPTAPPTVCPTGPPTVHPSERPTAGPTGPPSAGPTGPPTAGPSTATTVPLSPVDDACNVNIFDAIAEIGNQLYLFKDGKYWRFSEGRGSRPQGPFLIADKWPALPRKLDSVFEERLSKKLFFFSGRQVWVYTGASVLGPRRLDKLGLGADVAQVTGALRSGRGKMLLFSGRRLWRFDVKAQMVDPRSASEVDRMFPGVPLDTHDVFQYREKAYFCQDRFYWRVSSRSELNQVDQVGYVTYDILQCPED

Structure (SMILES): [2H]C([2H])([2H])C(O)(c1nc2ccc(Cl)cc2cc1N)C([2H])([2H])[2H] [Compound I-1]
- % inhibition of Control Values 1st [1]: −4.1%
- % inhibition of Control Values 2nd [1]: −5.7%
- % inhibition of Control Values Mean [1]: −4.9%
- % inhibition of Control Values 1st [2]: 4.9%
- % inhibition of Control Values 2nd [2]: −2.4%
- % inhibition of Control Values Mean [2]: 1.3%
- % inhibition of Control Values 1st [3]: −8.6%
- % inhibition of Control Values 2nd [3]: −2.9%
- % inhibition of Control Values Mean [3]: −5.7%
- % inhibition of Control Values 1st [4]: −9.4%
- % inhibition of Control Values 2nd [4]: −4.1%
- % inhibition of Control Values Mean [4]: −6.7%
- % inhibition of Control Values 1st [5]: 12.8%
- % inhibition of Control Values 2nd [5]: 3.0%
- % inhibition of Control Values Mean [5]: 7.9%
- inhibition at 10 µM ([6]; read-out: % inhibition of Control Values 1st): -3.1%
- inhibition at 10 µM ([6]; read-out: % inhibition of Control Values 2nd): 15.6%
- inhibition at 10 µM ([6]; read-out: % inhibition of Control Values Mean): 6.3%
- % inhibition of Control Values 1st [7]: 14.7%
- % inhibition of Control Values 2nd [7]: 16.4%
- % inhibition of Control Values Mean [7]: 15.6%
- % inhibition of Control Values 1st [8]: −15.5%
- % inhibition of Control Values 2nd [8]: −18.8%
- % inhibition of Control Values Mean [8]: −17.2%
- % inhibition of Control Values 1st [9]: 0.3%
- % inhibition of Control Values 2nd [9]: 3.0%
- % inhibition of Control Values Mean [9]: 1.7%
- % inhibition of Control Values 1st [10]: −15.1%
- % inhibition of Control Values 2nd [10]: −7.9%
- % inhibition of Control Values Mean [10]: −11.5%
- % inhibition of Control Values 1st [11]: 15.9%
- % inhibition of Control Values 2nd [11]: 16.9%
- % inhibition of Control Values Mean [11]: 16.4%
- % inhibition of Control Values 1st [12]: 1.2%
- % inhibition of Control Values 2nd [12]: −5.1%
- % inhibition of Control Values Mean [12]: −1.9%
- % inhibition of Control Values 1st [13]: 23.8%
- % inhibition of Control Values 2nd [13]: 26.2%
- % inhibition of Control Values Mean [13]: 25.0%
- % inhibition of Control Values 1st [14]: −4.8%
- % inhibition of Control Values 2nd [14]: −11.6%
- % inhibition of Control Values Mean [14]: −8.2%
- % inhibition of Control Values 1st [15]: −17.7%
- % inhibition of Control Values 2nd [15]: −35.7%
- % inhibition of Control Values Mean [15]: −26.7%
- % inhibition of Control Values 1st [16]: 4.5%
- % inhibition of Control Values 2nd [16]: 4.4%
- % inhibition of Control Values Mean [16]: 4.4%
- % inhibition of Control Values 1st [17]: 45.3%
- % inhibition of Control Values 2nd [17]: 10.7%
- % inhibition of Control Values Mean [17]: 28.0%
- % inhibition of Control Values 1st [18]: 127.6%
- % inhibition of Control Values 2nd [18]: 131.0%
- % inhibition of Control Values Mean [18]: 129.3%
- % inhibition of Control Values 1st [19]: 23.5%
- % inhibition of Control Values 2nd [19]: 24.8%
- % inhibition of Control Values Mean [19]: 24.2%
- % inhibition of Control Values 1st [20]: 0.9%
- % inhibition of Control Values 2nd [20]: −4.5%
- % inhibition of Control Values Mean [20]: −1.8%
- % inhibition of Control Values 1st [21]: 20.1%
- % inhibition of Control Values 2nd [21]: −2.6%
- % inhibition of Control Values Mean [21]: 8.8%
- % inhibition of Control Values 1st [22]: 17.1%
- % inhibition of Control Values 2nd [22]: −24.5%
- % inhibition of Control Values Mean [22]: −3.7%
